Experimental data reported in US10611750B2, “Tetrahydroquinoline compositions as bet bromodomain inhibitors” (FORMA Therapeutics, Inc., priority 2013, dated 2020).

How the values were obtained:
[1] = target: T1, BRD4 Bromodomain 1 (BRD4 BD1) (Homo sapiens, UniProt O60885); experiment: AlphaScreen binding assay, BRD4 BD1; conditions: His-tagged BRD4 BD1 50 nM, biotinylated H4 (1-21) K5/8/12/16 tetra-acetylated peptide 50 nM, compounds listed under IC50 range headings
T1 construct: 44-168 and BRD4 BD2
In short: (§1)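 An AlphaScreen competition format was used with His-BRD4 BD1 or BD2 and biotin-H4 K5/8/12/16-acetyl peptide, each at matched final levels of 50 nM (BD1) or 100 nM (BD2). Incubation in HEPES/NaCl buffer with 0.1% BSA and 0.01% Triton X-100 ran ≥1 h before IC50 determination.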

[2] = target: T2, BRD4 Bromodomain 2 (BRD4 BD2) (Homo sapiens, UniProt O60885); experiment: AlphaScreen binding assay, BRD4 BD2; conditions: His-tagged BRD4 BD2 100 nM, biotinylated H4 (1-21) K5/8/12/16 tetra-acetylated peptide 100 nM, compounds listed under IC50 range headings
T2 construct: 333-460 were cloned, expressed, and purified to homogeneity
In short: as §1

[3] = test system: acute myelocytic leukemia (AML) cell line MV4-11; experiment: Oncology cell growth assay (3-day proliferation, CellTiter-Glo); assay type: cell-based; conditions: Homo sapiens, MV4-11, 72 h, MV4-11 cells, 3000 cells/well, compounds listed under IC50 range headings, read-out: MV411 IC50 (gIC50, inhibition of proliferation)
In short: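 Luminescence from CellTiter-Glo served as the growth read-out after MV4-11 cells (3000/well) were cultured with compound for 72 hours. Final concentrations spanned 10 to 0.0045 μM in 3-fold steps. gIC50 values were derived by four-parameter logistic fitting relative to DMSO and cell-free controls.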

IC50 [1] [µM] | IC50 [2] [µM] | IC50 [3] [µM] | SMILES
0.1 to 1 | < 0.05 | < 0.5 | COC(=O)N1c2ccc(-c3cnn(C4CCNCC4)c3)c(Oc3cccc(Cl)c3C#N)c2CC[C@@H]1C [I-149, (S)-methyl 5-(3-chloro-2-cyanophenoxy)-2-methyl-6-(1-(piperidin-4-yl)-1H-pyrazol-4-yl)-3,4-dihydroquinoline-1(2H)-carboxylate]
0.1 to 1 | < 0.05 | < 0.5 | C[C@H]1CCc2c(ccc(-c3cnn(C4CCNCC4)c3)c2Oc2ccccc2C#N)N1C(=O)C1CC1 [I-150, (S)-2-(1-(cyclopropanecarbonyl)-2-methyl-6-(1-(piperidin-4-yl)-1H-pyrazol-4-yl)-1,2,3,4-tetrahydroquinolin-5-yloxy)benzonitrile]
0.1 to 1 | < 0.05 | < 0.5 | C[C@H]1CCc2c(ccc(-c3cnn(C4CCNCC4)c3)c2Oc2cccc(F)c2C#N)N1C(=O)C1CC1 [I-151, (S)-2-(1-(cyclopropanecarbonyl)-2-methyl-6-(1-(piperidin-4-yl)-1H-pyrazol-4-yl)-1,2,3,4-tetrahydroquinolin-5-yloxy)-6-fluorobenzonitrile]
0.1 to 1 | < 0.05 | < 0.5 | C[C@H]1CCc2c(ccc(-c3cnn(C4CCNCC4)c3)c2Oc2ccc(C#N)cc2F)N1C(=O)C1CC1 [I-152, (S)-4-(1-(cyclopropanecarbonyl)-2-methyl-6-(1-(piperidin-4-yl)-1H-pyrazol-4-yl)-1,2,3,4-tetrahydroquinolin-5-yloxy)-3-fluorobenzonitrile]
0.1 to 1 | < 0.05 | < 0.5 | CC(=O)N1c2ccc(-c3cnn(C4CC4)c3)c(Oc3ccccc3C#N)c2CC[C@@H]1C [I-153, (S)-2-(1-acetyl-6-(1-cyclopropyl-1H-pyrazol-4-yl)-2-methyl-1,2,3,4-tetrahydroquinolin-5-yloxy)benzonitrile]
0.1 to 1 | 0.05 to 0.5 | > 1 | CC(=O)N1c2ccc(-c3cnn(C4CCNCC4)c3)c(Oc3ccc(C(N)=O)cc3)c2CC[C@@H]1C [I-155, (S)-4-(1-acetyl-2-methyl-6-(1-(piperidin-4-yl)-1H-pyrazol-4-yl)-1,2,3,4-tetrahydroquinolin-5-yloxy)benzamide]
0.1 to 1 | < 0.05 | < 0.5 | CC(=O)N1c2ccc(-c3cnn(C4CCNCC4)c3)c(Oc3ccccc3Cl)c2CC[C@@H]1C [I-157, (S)-1-(5-(2-chlorophenoxy)-2-methyl-6-(1-(piperidin-4-yl)-1H-pyrazol-4-yl)-3,4-dihydroquinolin-1(2H)-yl)ethanone]
0.1 to 1 | < 0.05 | < 0.5 | COC(=O)N1c2ccc(-c3cnn(C4CCNCC4)c3)c(Oc3ccc(F)cc3)c2CC[C@@H]1C [I-158, (S)-methyl 5-(4-fluorophenoxy)-2-methyl-6-(1-(piperidin-4-yl)-1H-pyrazol-4-yl)-3,4-dihydroquinoline-1(2H)-carboxylate]
0.1 to 1 | < 0.05 | < 0.5 | COC(=O)N1c2ccc(-c3cnn(C4CCNCC4)c3)c(Oc3ccc(Cl)cc3)c2CC[C@@H]1C [I-159, (S)-methyl 5-(4-chlorophenoxy)-2-methyl-6-(1-(piperidin-4-yl)-1H-pyrazol-4-yl)-3,4-dihydroquinoline-1(2H)-carboxylate]
0.1 to 1 | < 0.05 | < 0.5 | COC(=O)N1c2ccc(-c3cnn(C4CCNCC4)c3)c(Oc3ccccc3Cl)c2CC[C@@H]1C [I-160, (S)-methyl 5-(2-chlorophenoxy)-2-methyl-6-(1-(piperidin-4-yl)-1H-pyrazol-4-yl)-3,4-dihydroquinoline-1(2H)-carboxylate]
0.1 to 1 | < 0.05 | > 1 | COC(=O)N1c2ccc(-c3cnn(C4CCNCC4)c3)c(Oc3ccc(C(N)=O)cc3)c2CC[C@@H]1C [I-161, (S)-methyl 5-(4-carbamoylphenoxy)-2-methyl-6-(1-(piperidin-4-yl)-1H-pyrazol-4-yl)-3,4-dihydroquinoline-1(2H)-carboxylate]
